Laboratory results as given in patent US7148250B2, “Indoles as NAALADase inhibitors” (Guilford Pharmaceuticals Inc., priority 2001, dated 2006).

Legend:
[1] = test system: Brown Norway rats with unilateral optic nerve transection; experiment: Optic nerve transection, optic nerve fiber counting; type: in vivo, Rattus norvegicus; conditions: for FIBER NUMBER ± SEM / PERCENT DIFFERENCE ± SEM in fiber number between transected and normal eye: 10 mg/kg i.p. daily
Description: All experiments complied with the Association for Research in Vision and Ophthalmology Statement for the Use of Animals in Ophthalmic and Vision Research. 82 male Brown Norway rats (Rattus norvegicus), each weighing approximately 250 gm, were treated using procedures approved by the Animal Care Committee of the Johns Hopkins University School of Medicine. The rats were housed with a 12 hour light/12 hour dark cycle and fed ad libitum.
OPTIC NERVE TRANSECTION: The optic nerve was transected unilaterally in 26 rats under intraperitoneal pentobarbital anesthesia. The conjunctiva was opened with scissors and the optic nerve exposed by traction on extraocular muscles. The transection was performed with microscissors 5 mm posterior to the globe, with specific attention to avoidance of injury to major ocular blood vessels. Immediately after transection, the retina was examined ophthalmoscopically to assure that the retinal arterial blood supply was not disrupted. The conjunctiva was closed with absorbable suture and the eye dressed with antibiotic ointment. Beginning on the day of transection, the rats were treated daily with intraperitoneal injections of either a vehicle (9 rats with 50 mM HEPES-buffered saline) or a NAALADase inhibitor (8 rats with 10 mg/kg of Compound A and 9 rats with 10 mg/kg of Compound B). 5 saline treated rats, 3 Compound A treated rats and 4 Compound B treated rats were sacrificed at 2 weeks, and the remaining rats at 4 weeks, after transection.
OPTIC NERVE COUNTING: The rats were sacrificed by exsanguination under deep pentobarbital anesthesia. They were perfused through the heart with 2% paraformaldehyde/2% glutaraldehyde in 0.1 M phosphate buffer, pH 7.2, and the eyes with attached optic nerves were removed. A cross-section of the optic nerve from both experimental (glaucoma or transection) and control eyes was removed 1.5 mm posterior to the globe, 1 mm in thickness, and post-fixed in 2% osmium tetroxide in buffer. These were processed into epoxy resin, sectioned at 1 micron and stained with toluidine blue.
The area of the optic nerve cross-section was measured by outlining its outer border at 10× magnification on an image analysis system (Universal Imaging Corp., Westchester, Pa.) with Synsys digital camera and Metamorph software. Three area measurements were taken and the mean value was determined. To measure the density and fiber diameter distributions, images were captured with a 100× phase contrast objective from 10 different areas of each nerve. These were edited to eliminate non-neural objects and the size of each axon internal to the myelin sheath (its minimum diameter) and the density of axons/square mm were calculated for each image and nerve. The mean density was multiplied by total nerve area to yield fiber number for each nerve. The total fiber number in glaucoma or transection nerves was compared to the normal, fellow eye of each rat to yield a percent loss value. The number of axons counted among the 10 images was an approximately 20% sample of the 80–90,000 axons in normal rat nerves. The person measuring axon number was masked to the protocol conducted on the nerves.

[2] = test system: transgenic HD mice of the N171-82Q strain; experiment: Transgenic mouse model of Huntington's disease (rotarod, locomotion, survival); type: in vivo
Description: Transgenic HD mice of the N171-82Q strain and non-transgenic littermates were treated with NAALADase inhibitor Compound B (30 mg/kg) or a vehicle from 10 weeks of age. The mice were placed on a rotating rod (“rotarod”). The length of time at which the mouse fell off the rotarod was recorded as a measure of motor coordination. […] The treatment with Compound B had no effect on the rotarod performance of normal non-HD mice.
The total distance traveled by the mice was also recorded as a measure of overall locomotion.
The effects of Compound B and vehicle on the survival of transgenic HD mice (N171-82Q) were evaluated. Thirteen mice (six male and seven female) were assigned to the Compound B treatment group, and fourteen mice (six male and eight female) were assigned to the vehicle treatment group. Treatment was continued until all the mice died.

[3] = 2 weeks survival after transection
[4] = 4 weeks survival after transection

O=C(O)CCC(CCCS)C(=O)O (stereo not drawn) [Compound B, 2-(3-sulfanylpropyl)-pentanedioic acid]
remaining axons relative to saline-treated rats ([1]; 2 weeks after transection): twice | FIBER NUMBER ± SEM [1, 3]: 19,550 ± 5,091 | PERCENT DIFFERENCE ± SEM in fiber number between transected and normal eye [1, 3]: 75.3 ± 6.6% | FIBER NUMBER ± SEM [1, 4]: 5,162 ± 2,509 | PERCENT DIFFERENCE ± SEM in fiber number between transected and normal eye [1, 4]: 93.4 ± 3.1% | survival time versus vehicle treated counterparts ([2]; female transgenic HD mice (p-value=0.03)): significantly prolonged survival time | rotarod performance ([2]; normal non-HD mice, 30 mg/kg): no effect | median survival time ([2]; transgenic HD mice (N171-82Q), both sexes, not significant versus vehicle (p=0.07)): 184 days | rotarod performance (time on rotarod) versus vehicle ([2]; transgenic HD mice, 30 mg/kg from 10 weeks of age): stayed longer on the rotarod
